Source: patent US12594293B2, “Use of 6-thio-dG to treat therapy-resistant telomerasepositive pediatric brain tumors” (The Board of Regents of The University of Texas System, priority 2018, dated 2026)
“Also recorded” adds a separate entry of the source.

Experiments:
[1] = tested on: CCHMC-DIPG-1 orthotopic tumors; assay: Orthotopic patient-derived DIPG xenograft (CCHMC-DIPG-1 in pons); assay type: in vivo, mouse
Protocol: Mouse subcutaneous and orthotopic xenograft. Athymic Ncr-nu/nu female mice (6-7 weeks old) were subcutaneously injected with 10,000 MB004 cells. Mice were weighed and distributed in two groups (control and 6-thio-dG). After tumor-establishment (day 23-24 post-implantation) with an average volume of 100-200 mm3, mice were injected intraperitoneally (i.p) every 2 days with 6-thio-dG (2.5 mg/kg) or DMSO-PBS (vehicle) for 3-4 weeks until euthanization. Tumors were measured by slide calipers taking two longest tumor-diameters (length and width) perpendicular to each other and volumes were calculated by using the formula: (π/6)×d3, where d=mean diameter. For orthotopic xenograft, CCHMC-DIPG-1 luciferase-positive cells (10,000) were injected in the brain of NRG (NOD.Cg-Rag1tm1Mom Il2rgtm1Wjl/SzJ) mice. Briefly, mice were injected stereotactically with 2 μl medium containing 10,000 luciferase-positive cells. The coordinates for injection were 0.8-1 mm posterior to lambda suture and 3.5 mm deep, corresponding to the pons location in the brain. Tumors were visualized by luminescence using IVIS Spectrum CT in vivo imaging system (PerkinElmer). All animal procedures were approved by the Institutional Animal Care and Use Committee (IACUC) (protocol #IACUC2015-0066, CCHMC).
Immunohistochemistry. Formalin-fixed paraffin-embedded (FFPE) sections were deparaffinized in xylene followed by rehydration through a graded ethanol concentration series. Heat-induced antigen retrieval was performed by steaming slides for 20 minutes in 10 mM Citrate buffer (pH 6.0). […] Slides were washed with TBST (×3) and were treated with biotinylated anti-rabbit secondary antibody (1:500) and signal-amplified using ABC Kit (Vector Laboratories). Signal was visualized with DAB (Vector Laboratories) and counterstained with Harris Hematoxylin (Sigma). H & E staining was performed using hematoxylin-1 and eosin-Y (Thermo Scientific). Tissues were mounted with Permount (Fisher Scientific) and imaged by Nikon eclipse 80i microscope.
Tissue TIF assay. […]

HFF cells = assay: Cell cycle analysis (PI flow cytometry); assay type: cell-based, human; conditions: 3 μM, three days
Protocol: (§1) Cell cycle analysis. Following treatment with 6-thio-dG or DMSO, cells were collected in PBS, fixed with ice-cold 70% ethanol and were kept in −20° C. for at least an hour. Cells were then washed and stained with propidium iodide (PI) solution containing 25 μg/mL PI (Sigma), and 100 μg/mL Ribonuclease-A (Sigma) for 30 minutes in the dark. Flow cytometry was performed on BD FACS Canto II and cells were analyzed using FlowJo v.10 (FlowJo, USA) software.

HFF+hTERT cells = assay: Cell cycle analysis (PI flow cytometry); assay type: cell-based, human
Protocol: as §1

MB004 cells [2] = assay: Sphere formation assay; assay type: cell-based, human; conditions: 3 μM, day 7
Protocol: Cell growth and sphere formation assay. After dissociating primary neurospheres by TrypLE express (Gibco), single cells were seeded in respective growth media in 6-well plates and were incubated for one week at varying concentrations (0.5 to 10 μM) of 6-thio-dG or DMSO. Fresh culture media were added every three days. Viable cell numbers were determined by trypan blue exclusion method. For sphere formation assay, MB004 single cells were seeded in limited dilution (10 cells/well in 96-well plate) and treated with DMSO or 6-thio-dG. Sphere formation was monitored by microscopy.

U2OS cells = assay: Cell growth and viability after drug removal; assay type: cell-based, human; conditions: 3 mM 6-thio-dG for 3 days followed by 10-days post-drug removal (FIG. 10C)
HFF + hTERT = assay: Cell growth assay (viable cell count, trypan blue exclusion); assay type: cell-based, human; conditions: Homo sapiens, 168 h; 6-thio-dG treatment for 7 days; HFF + hTERT
MB004 cells [3] = assay: Apoptosis, cleaved caspase-3; assay type: cell-based, human; conditions: 3 μM for 4 or 7 days; data not shown
Protocol: (§2) Immunofluorescence and telomere FISH assay. Cells were fixed with 4% paraformaldehyde (PFA) for 15 minutes. Cells were then washed, permeabilized with 0.5% Triton-X-100 in PBS, blocked with 5% donkey serum and 0.3% Triton X-100 in TBS and incubated with primary antibodies against γH2A.X (1:500, rabbit), or cleaved caspase-3 (1:400, rabbit) (Cell Signaling); and/or TRF2 (1:200) (Mouse; NOVUS), as applicable, for overnight followed by TBST wash (×3) next day. Corresponding secondary antibodies were added (Alexa-Fluor 488- or 594-conjugated donkey anti-rabbit, or anti-mouse (1:500) (Jackson ImmunoResearch) for 1 hour and washed with TBS (×3) before mounting. For telomere-FISH, fixed and permeabilized cells were dehydrated with a graded ethanol concentration series, air-dried and covered with hybridization solution (70% formamide, 0.5% Blocking Reagent (Roche Diagnostics) diluted in 100 mM maleic acid and 150 mM sodium chloride, and 10 mM Tris (pH 7.5)) with 300 ng/mL PNA(CCCTAA)3-Cy3 (SEQ ID NO: 1) (Biosynthesis, USA), and denatured for 6 minutes at 84° C. followed by hybridization for at least two hours at room temperature. Cells were washed three times with 70% formamide and 10 mM Tris (pH 7.5) and three times with TBS. […]
(§3) Western blot. […] Band intensities were quantified using ImageJ software (Ver. 1.49u, NIH, USA).

CCHMC-DIPG-1 cells = assay: Apoptosis, cleaved caspase-3; assay type: cell-based, human; conditions: 3 μM for 4 or 7 days; data not shown
Protocol: as §2, §3

Nc1nc2c(ncn2[C@H]2C[C@H](O)[C@@H](CO)O2)c(=S)[nH]1 [6-thio-dG, 6-thio-2′-deoxyguanosine]
intratumoral TIFs and genomic DNA damage ([1]; i.p., 7-8 days (4-5 doses in total), vs untreated tumors): increase in the number of cells with genomic DNA damage and TIFs
effect on normal mouse brain ([1]; intraperitoneal injection): no obvious effect on normal brain tissue; also recorded: did not observe any adverse effects
penetration to brain tumor site ([1]; intraperitoneal injection): reached the tumor in the pons; also recorded: crossed the blood-brain-barrier
G2/M arrest effect (HFF cells): negligible
cell cycle profile after drug removal (HFF+hTERT cells; 3 μM 3 days, then drug removed): partially reverted to that of the vehicle control
cell cycle progression (HFF+hTERT cells; 3 μM, three days): caused G2/M arrest
sphere formation ability (MB004 cells [2]): total abolition of sphere formation ability
cell death / viability (U2OS cells): predominantly did not die
IC50 (HFF + hTERT): 179 nM
cleaved caspase-3 signal (apoptosis) (MB004 cells [3]): increase in cleaved caspase-3 signal
cleaved caspase-3 signal (apoptosis) (CCHMC-DIPG-1 cells): increase in cleaved caspase-3 signal
